In ChEMBL document CHEMBL4507293 (2021):

Experiments:
[1] = biological target: 1-phosphatidylinositol 3-phosphate 5-kinase (Homo sapiens) (UniProt Q9Y2I7); conditions: Compound concentration 100.0 nM
[2] = biological target: Serine/threonine-protein kinase PAK 5 (Homo sapiens) (UniProt Q9P286); conditions: Compound concentration 100.0 nM
[3] = biological target: Ephrin type-B receptor 3 (Homo sapiens) (UniProt P54753); conditions: Compound concentration 100.0 nM
[4] = biological target: Phosphorylase b kinase regulatory subunit alpha, liver isoform (Homo sapiens) (UniProt P46019); conditions: Compound concentration 100.0 nM
[5] = biological target: Mitogen-activated protein kinase kinase kinase 5 (Homo sapiens) (UniProt Q99683); conditions: Compound concentration 100.0 nM
[6] = biological target: Receptor tyrosine-protein kinase erbB-2 (Homo sapiens) (UniProt P04626); conditions: Compound concentration 100.0 nM
[7] = biological target: Activated CDC42 kinase 1 (Homo sapiens) (UniProt Q07912); conditions: Compound concentration 100.0 nM
[8] = biological target: Macrophage colony-stimulating factor 1 receptor (Homo sapiens) (UniProt P07333); conditions: Compound concentration 100.0 nM
[9] = tested on: Tyrosine-protein kinase ABL1 (Homo sapiens), P00519 [T315I]; conditions: Compound concentration 100.0 nM
[10] = biological target: Ribosomal protein S6 kinase beta-1 (Homo sapiens) (UniProt P23443); conditions: Compound concentration 100.0 nM
[11] = biological target: LIM domain kinase 2 (Homo sapiens) (UniProt P53671); conditions: Compound concentration 100.0 nM
[12] = biological target: Tyrosine-protein kinase Blk (Homo sapiens) (UniProt P51451); conditions: Compound concentration 100.0 nM
Sequence of Tyrosine-protein kinase Blk (Homo sapiens) (P51451 2-505 limits assumed): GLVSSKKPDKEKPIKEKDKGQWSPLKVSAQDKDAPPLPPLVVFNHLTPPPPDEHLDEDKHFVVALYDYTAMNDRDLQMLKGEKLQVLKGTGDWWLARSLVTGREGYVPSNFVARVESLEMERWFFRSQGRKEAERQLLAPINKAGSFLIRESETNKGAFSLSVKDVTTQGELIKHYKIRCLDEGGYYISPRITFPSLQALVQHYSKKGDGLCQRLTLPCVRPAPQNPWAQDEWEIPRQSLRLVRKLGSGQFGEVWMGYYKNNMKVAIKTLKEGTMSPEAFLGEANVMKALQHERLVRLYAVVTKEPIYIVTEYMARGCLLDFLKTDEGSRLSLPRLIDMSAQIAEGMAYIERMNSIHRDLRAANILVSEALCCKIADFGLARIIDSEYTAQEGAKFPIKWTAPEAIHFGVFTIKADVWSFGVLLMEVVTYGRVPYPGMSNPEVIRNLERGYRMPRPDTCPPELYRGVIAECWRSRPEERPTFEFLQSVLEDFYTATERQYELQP

[13] = biological target: Vascular endothelial growth factor receptor 1 (Homo sapiens) (UniProt P17948); conditions: Compound concentration 100.0 nM
[14] = biological target: Tyrosine-protein kinase ZAP-70 (Homo sapiens) (UniProt P43403); conditions: Compound concentration 100.0 nM
[15] = biological target: Ribosomal protein S6 kinase alpha-5 (Homo sapiens) (UniProt O75582); conditions: Compound concentration 100.0 nM
[16] = biological target: Serine/threonine-protein kinase 26 (Homo sapiens) (UniProt Q9P289); conditions: Compound concentration 100.0 nM
Sequence of Serine/threonine-protein kinase 26 (Homo sapiens) (Q9P289 2-416 limits assumed): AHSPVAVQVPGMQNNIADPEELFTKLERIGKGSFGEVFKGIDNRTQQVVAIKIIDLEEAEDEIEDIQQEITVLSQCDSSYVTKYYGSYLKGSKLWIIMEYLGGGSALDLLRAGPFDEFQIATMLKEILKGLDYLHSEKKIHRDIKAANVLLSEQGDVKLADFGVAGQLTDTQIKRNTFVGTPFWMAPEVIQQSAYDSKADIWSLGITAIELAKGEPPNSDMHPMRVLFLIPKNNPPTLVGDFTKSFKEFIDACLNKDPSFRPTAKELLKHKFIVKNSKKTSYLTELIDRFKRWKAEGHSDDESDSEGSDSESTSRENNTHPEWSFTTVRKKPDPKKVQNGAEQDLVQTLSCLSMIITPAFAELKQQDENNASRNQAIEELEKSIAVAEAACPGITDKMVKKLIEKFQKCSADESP

[17] = biological target: Mitogen-activated protein kinase 6 (Homo sapiens) (UniProt Q16659); conditions: Compound concentration 100.0 nM
[18] = biological target: Mitogen-activated protein kinase kinase kinase 6 (Homo sapiens) (UniProt O95382); conditions: Compound concentration 100.0 nM
[19] = biological target: Serine/threonine-protein kinase DCLK1 (Homo sapiens) (UniProt O15075); conditions: Compound concentration 100.0 nM
[20] = biological target: TGF-beta receptor type-1 (Homo sapiens) (UniProt P36897); conditions: Compound concentration 100.0 nM
[21] = biological target: High affinity nerve growth factor receptor (Homo sapiens) (UniProt P04629); conditions: Compound concentration 100.0 nM
[22] = biological target: Delta-type opioid receptor (Homo sapiens) (UniProt P41143); conditions: Compound concentration 10.0 uM
[23] = biological target: Tyrosine-protein kinase receptor TYRO3 (Homo sapiens) (UniProt Q06418); conditions: Compound concentration 100.0 nM
Sequence of Tyrosine-protein kinase receptor TYRO3 (Homo sapiens) (Q06418 whole entry): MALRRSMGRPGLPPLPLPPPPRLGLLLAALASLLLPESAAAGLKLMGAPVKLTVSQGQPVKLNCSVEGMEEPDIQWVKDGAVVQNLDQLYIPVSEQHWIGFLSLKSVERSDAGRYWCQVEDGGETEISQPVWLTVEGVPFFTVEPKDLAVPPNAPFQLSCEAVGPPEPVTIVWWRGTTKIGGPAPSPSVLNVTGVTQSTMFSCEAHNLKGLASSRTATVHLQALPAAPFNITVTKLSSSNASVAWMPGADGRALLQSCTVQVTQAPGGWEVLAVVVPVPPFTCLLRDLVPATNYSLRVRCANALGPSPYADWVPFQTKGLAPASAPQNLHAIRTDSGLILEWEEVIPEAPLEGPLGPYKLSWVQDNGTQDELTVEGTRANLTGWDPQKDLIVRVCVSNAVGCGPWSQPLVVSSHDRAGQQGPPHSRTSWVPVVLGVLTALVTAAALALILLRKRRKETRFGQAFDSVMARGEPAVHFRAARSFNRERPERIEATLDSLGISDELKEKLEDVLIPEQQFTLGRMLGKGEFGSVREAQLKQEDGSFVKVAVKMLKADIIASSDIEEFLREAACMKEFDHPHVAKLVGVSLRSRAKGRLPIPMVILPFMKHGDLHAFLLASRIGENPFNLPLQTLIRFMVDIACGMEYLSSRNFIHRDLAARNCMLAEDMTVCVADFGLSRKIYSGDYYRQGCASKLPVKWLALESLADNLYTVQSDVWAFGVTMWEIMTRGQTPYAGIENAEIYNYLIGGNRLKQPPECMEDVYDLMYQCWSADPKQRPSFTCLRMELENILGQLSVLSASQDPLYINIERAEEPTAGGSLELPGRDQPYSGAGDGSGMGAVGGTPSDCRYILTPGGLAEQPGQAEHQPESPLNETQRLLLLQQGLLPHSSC

[24] = biological target: Alpha-1B adrenergic receptor (Homo sapiens) (UniProt P35368); conditions: Compound concentration 10.0 uM
[25] = biological target: Calcium/calmodulin-dependent protein kinase type II subunit delta (Homo sapiens) (UniProt Q13557); conditions: Compound concentration 100.0 nM
[26] = biological target: Serine/threonine-protein kinase 16 (Homo sapiens) (UniProt O75716); conditions: Compound concentration 100.0 nM
Sequence of Serine/threonine-protein kinase 16 (Homo sapiens) (O75716 whole entry): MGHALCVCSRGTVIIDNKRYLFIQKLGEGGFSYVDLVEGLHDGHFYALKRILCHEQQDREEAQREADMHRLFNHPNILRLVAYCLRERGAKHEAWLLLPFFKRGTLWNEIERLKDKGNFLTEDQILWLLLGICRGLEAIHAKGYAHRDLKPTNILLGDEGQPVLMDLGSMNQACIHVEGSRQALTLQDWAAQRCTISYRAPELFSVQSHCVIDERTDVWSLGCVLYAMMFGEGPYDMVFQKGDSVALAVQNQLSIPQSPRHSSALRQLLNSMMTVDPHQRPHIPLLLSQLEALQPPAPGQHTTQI

[27] = biological target: Fibroblast growth factor receptor 3 (Homo sapiens) (UniProt P22607); conditions: Compound concentration 100.0 nM
Sequence of Fibroblast growth factor receptor 3 (Homo sapiens) (P22607 23-806 limits assumed): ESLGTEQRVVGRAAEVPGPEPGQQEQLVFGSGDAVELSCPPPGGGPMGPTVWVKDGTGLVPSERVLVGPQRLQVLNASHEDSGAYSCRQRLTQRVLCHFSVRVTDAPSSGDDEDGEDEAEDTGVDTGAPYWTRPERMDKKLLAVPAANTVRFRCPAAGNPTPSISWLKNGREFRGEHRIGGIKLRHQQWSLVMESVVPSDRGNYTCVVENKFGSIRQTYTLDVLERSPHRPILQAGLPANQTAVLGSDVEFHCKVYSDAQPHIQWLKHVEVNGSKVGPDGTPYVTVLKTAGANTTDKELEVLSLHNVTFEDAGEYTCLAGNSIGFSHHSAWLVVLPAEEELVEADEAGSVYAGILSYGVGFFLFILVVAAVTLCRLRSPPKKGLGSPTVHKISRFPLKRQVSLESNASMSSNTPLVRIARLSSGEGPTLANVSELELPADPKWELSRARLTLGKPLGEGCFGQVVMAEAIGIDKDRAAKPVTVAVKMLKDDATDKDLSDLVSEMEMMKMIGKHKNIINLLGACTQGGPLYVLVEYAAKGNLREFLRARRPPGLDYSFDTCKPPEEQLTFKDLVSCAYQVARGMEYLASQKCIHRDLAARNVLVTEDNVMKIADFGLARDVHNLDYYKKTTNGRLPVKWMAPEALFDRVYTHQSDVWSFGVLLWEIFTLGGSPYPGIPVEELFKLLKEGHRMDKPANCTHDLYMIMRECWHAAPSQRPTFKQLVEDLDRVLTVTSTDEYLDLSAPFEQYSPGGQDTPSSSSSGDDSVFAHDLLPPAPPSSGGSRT

[28] = biological target: Serine/threonine-protein kinase D2 (Homo sapiens) (UniProt Q9BZL6); conditions: Compound concentration 100.0 nM
[29] = biological target: Sigma intracellular receptor 2 (Homo sapiens, UniProt Q5BJF2); test: GPCRScan assay: inhibition of Sigma 2; parameters: radioligand conc. used [nm] 5.0, parental cells HEKT
[30] = biological target: SNF-related serine/threonine-protein kinase (Homo sapiens) (UniProt Q9NRH2); conditions: Compound concentration 100.0 nM
[31] = biological target: Non-receptor tyrosine-protein kinase TYK2 (Homo sapiens) (UniProt P29597); conditions: Compound concentration 100.0 nM
[32] = biological target: Mitogen-activated protein kinase 15 (Homo sapiens) (UniProt Q8TD08); conditions: Compound concentration 100.0 nM
[33] = tested on: Phosphatidylinositol 4,5-bisphosphate 3-kinase catalytic subunit alpha isoform (Homo sapiens), P42336 [E542K]; conditions: Compound concentration 100.0 nM
[34] = biological target: Ephrin type-A receptor 2 (Homo sapiens) (UniProt P29317); conditions: Compound concentration 100.0 nM
[35] = biological target: Casein kinase II subunit alpha' (Homo sapiens) (UniProt P19784); conditions: Compound concentration 100.0 nM
Sequence of Casein kinase II subunit alpha' (Homo sapiens) (P19784 whole entry, looked up): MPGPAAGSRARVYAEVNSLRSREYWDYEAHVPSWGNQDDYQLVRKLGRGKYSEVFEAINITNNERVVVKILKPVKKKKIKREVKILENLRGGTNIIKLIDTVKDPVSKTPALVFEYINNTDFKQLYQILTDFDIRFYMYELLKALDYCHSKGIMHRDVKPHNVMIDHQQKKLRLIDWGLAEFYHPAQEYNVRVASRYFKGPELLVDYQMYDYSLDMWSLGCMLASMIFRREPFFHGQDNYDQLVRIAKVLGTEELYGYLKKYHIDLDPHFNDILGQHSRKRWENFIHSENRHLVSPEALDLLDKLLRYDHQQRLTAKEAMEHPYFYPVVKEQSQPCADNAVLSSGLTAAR

[36] = biological target: Serine/threonine-protein kinase WNK1 (Homo sapiens) (UniProt Q9H4A3); conditions: Compound concentration 100.0 nM
[37] = biological target: MAP kinase-interacting serine/threonine-protein kinase 2 (Homo sapiens) (UniProt Q9HBH9); conditions: Compound concentration 100.0 nM
[38] = biological target: Glycogen synthase kinase-3 alpha (Homo sapiens) (UniProt P49840); conditions: Compound concentration 100.0 nM
[39] = biological target: Macrophage-stimulating protein receptor (Homo sapiens) (UniProt Q04912); conditions: Compound concentration 100.0 nM
[40] = biological target: Mitogen-activated protein kinase 14 (Homo sapiens) (UniProt Q16539); conditions: Compound concentration 100.0 nM
Sequence of Mitogen-activated protein kinase 14 (Homo sapiens) (Q16539 whole entry): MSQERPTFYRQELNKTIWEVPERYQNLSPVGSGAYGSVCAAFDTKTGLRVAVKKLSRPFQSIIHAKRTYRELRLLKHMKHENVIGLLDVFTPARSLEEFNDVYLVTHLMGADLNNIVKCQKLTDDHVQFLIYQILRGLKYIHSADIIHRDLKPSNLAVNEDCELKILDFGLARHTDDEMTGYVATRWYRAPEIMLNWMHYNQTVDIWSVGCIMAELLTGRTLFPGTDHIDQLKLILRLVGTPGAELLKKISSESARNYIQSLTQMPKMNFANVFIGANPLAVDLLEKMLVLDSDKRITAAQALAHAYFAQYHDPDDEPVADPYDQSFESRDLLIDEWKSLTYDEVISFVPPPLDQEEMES

[41] = biological target: Wee1-like protein kinase 2 (Homo sapiens) (UniProt P0C1S8); conditions: Compound concentration 100.0 nM
Sequence of Wee1-like protein kinase 2 (Homo sapiens) (P0C1S8 whole entry, looked up): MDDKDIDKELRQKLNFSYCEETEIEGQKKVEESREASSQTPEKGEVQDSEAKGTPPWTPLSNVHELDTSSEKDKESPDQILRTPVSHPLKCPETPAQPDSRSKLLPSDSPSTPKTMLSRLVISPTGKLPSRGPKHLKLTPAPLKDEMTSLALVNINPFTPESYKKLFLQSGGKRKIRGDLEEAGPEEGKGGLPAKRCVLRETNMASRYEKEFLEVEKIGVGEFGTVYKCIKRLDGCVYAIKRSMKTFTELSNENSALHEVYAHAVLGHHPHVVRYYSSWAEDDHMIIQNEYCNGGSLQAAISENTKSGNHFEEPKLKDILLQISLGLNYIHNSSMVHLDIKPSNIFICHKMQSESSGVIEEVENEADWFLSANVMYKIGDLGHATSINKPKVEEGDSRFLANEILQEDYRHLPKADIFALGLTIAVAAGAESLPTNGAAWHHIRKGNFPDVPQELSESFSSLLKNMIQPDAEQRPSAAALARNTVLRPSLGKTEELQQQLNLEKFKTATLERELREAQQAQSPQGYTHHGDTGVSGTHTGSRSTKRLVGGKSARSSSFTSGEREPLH

[42] = biological target: Cyclin-dependent kinase 7 (Homo sapiens) (UniProt P50613); conditions: Compound concentration 100.0 nM
[43] = biological target: Activin receptor type-2A (Homo sapiens) (UniProt P27037); conditions: Compound concentration 100.0 nM
[44] = biological target: Serine/threonine-protein kinase BRSK1 (Homo sapiens) (UniProt Q8TDC3); conditions: Compound concentration 100.0 nM
[45] = biological target: Receptor-interacting serine/threonine-protein kinase 4 (Homo sapiens) (UniProt P57078); conditions: Compound concentration 100.0 nM
[46] = biological target: Ephrin type-A receptor 3 (Homo sapiens) (UniProt P29320); conditions: Compound concentration 100.0 nM

Sequence of Serine/threonine-protein kinase PAK 5 (Homo sapiens) (Q9P286 whole entry, looked up): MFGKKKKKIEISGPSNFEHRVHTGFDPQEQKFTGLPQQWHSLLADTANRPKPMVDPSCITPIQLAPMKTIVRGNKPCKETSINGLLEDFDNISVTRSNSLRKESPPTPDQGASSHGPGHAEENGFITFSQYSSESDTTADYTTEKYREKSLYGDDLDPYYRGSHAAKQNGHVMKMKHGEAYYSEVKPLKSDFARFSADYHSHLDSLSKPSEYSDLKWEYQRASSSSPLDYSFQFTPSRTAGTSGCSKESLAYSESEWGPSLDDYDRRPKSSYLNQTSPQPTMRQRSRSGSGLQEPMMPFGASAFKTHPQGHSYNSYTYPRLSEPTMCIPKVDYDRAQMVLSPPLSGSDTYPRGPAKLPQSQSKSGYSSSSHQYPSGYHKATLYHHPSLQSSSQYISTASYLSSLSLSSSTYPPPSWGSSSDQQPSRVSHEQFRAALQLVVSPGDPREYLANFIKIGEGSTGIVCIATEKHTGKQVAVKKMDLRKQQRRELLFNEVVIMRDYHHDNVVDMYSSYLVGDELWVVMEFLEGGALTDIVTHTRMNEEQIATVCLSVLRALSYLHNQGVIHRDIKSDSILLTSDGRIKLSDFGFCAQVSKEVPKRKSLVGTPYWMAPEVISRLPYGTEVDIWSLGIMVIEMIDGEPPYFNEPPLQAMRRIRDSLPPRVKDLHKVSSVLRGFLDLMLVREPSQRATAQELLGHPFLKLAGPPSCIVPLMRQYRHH

## CC(C)CC(=O)N1CCc2nc(-c3ccc(Br)cc3)nc(N(C)Cc3ccccc3)c2C1 [THPP-1-NC]
[1]
  residual activity: 91%
[2]
  residual activity: 100%
[3]
  residual activity: 100%
[4]
  residual activity: 100%
[5]
  residual activity: 91%
[6]
  residual activity: 82%
[7]
  residual activity: 99%
[8]
  residual activity: 100%
[9]
  residual activity: 100%
[10]
  residual activity: 100%
[11]
  residual activity: 100%
[12]
  residual activity: 84%
[13]
  residual activity: 100%
[14]
  residual activity: 91%
[15]
  residual activity: 96%
[16]
  residual activity: 100%
[17]
  residual activity: 100%
[18]
  residual activity: 100%
[19]
  residual activity: 100%
[20]
  residual activity: 100%
[21]
  residual activity: 100%
[22]
  inhibition: 8.22%
[23]
  residual activity: 100%
[24]
  inhibition: 17.5%
[25]
  residual activity: 100%
[26]
  residual activity: 100%
[27]
  residual activity: 100%
[28]
  residual activity: 100%
[29]
  Ki: 708 nM
[30]
  residual activity: 84%
[31]
  residual activity: 100%
[32]
  residual activity: 100%
[33]
  residual activity: 100%
[34]
  residual activity: 100%
[35]
  residual activity: 88%
[36]
  residual activity: 100%
[37]
  residual activity: 73%
[38]
  residual activity: 100%
[39]
  residual activity: 100%
[40]
  residual activity: 100%
[41]
  residual activity: 100%
[42]
  residual activity: 65%
[43]
  residual activity: 97%
[44]
  residual activity: 100%
[45]
  residual activity: 100%
[46]
  residual activity: 100%

## COCCOc1nc(-c2ccc(Cl)nc2)nc2c1CN(C(=O)c1ncn3ccccc13)CC2 [THPP-1]
[1]
  residual activity: 90%
[2]
  residual activity: 100%
[3]
  residual activity: 100%
[4]
  residual activity: 100%
[5]
  residual activity: 84%
[6]
  residual activity: 82%
[7]
  residual activity: 100%
[8]
  residual activity: 100%
[9]
  residual activity: 100%
[10]
  residual activity: 100%
[11]
  residual activity: 100%
[12]
  residual activity: 75%
[13]
  residual activity: 87%
[14]
  residual activity: 95%
[15]
  residual activity: 100%
[16]
  residual activity: 100%
[17]
  residual activity: 100%
[18]
  residual activity: 100%
[19]
  residual activity: 100%
[20]
  residual activity: 100%
[21]
  residual activity: 100%
[22]
  inhibition: 6.52%
[23]
  residual activity: 100%
[24]
  inhibition: 10.8%
[25]
  residual activity: 100%
[26]
  residual activity: 100%
[27]
  residual activity: 100%
[28]
  residual activity: 100%
[29]
  Ki: 3350 nM
[30]
  residual activity: 79%
[31]
  residual activity: 100%
[32]
  residual activity: 100%
[33]
  residual activity: 87%
[34]
  residual activity: 100%
[35]
  residual activity: 100%
[36]
  residual activity: 100%
[37]
  residual activity: 100%
[38]
  residual activity: 100%
[39]
  residual activity: 100%
[40]
  residual activity: 100%
[41]
  residual activity: 100%
[42]
  residual activity: 77%
[43]
  residual activity: 98%
[44]
  residual activity: 100%
[45]
  residual activity: 100%
[46]
  residual activity: 96%
